For one data set, the system named is human whole blood. Briefly: Activated clotting time (ACT) of blood from PCI patients. The conditions noted are these: iv 0.75 mg/kg bolus then 1.75 mg/kg/hr, 30 min. As to the method:
PZ-128 (χ) was spiked at various concentrations (0-150 μM) into fresh whole blood obtained from patients just prior to PCI. By comparison, blood was obtained at the 30 min time point from PCI patients (n=22) after a weight-adjusted dosage of bivalirudin (•) administered intravenously as a 0.75 mg/kg bolus followed by continuous infusion of 1.75 mg/kg/hr during the procedure. ACT assays were performed immediately using a Hemochron 801 with FTCA510-4 ACT cartridges containing silica, phospholipids, and diatomaceous earth (kaolin). The open circle represents the mean (±SD) ACT and mean bivalirudin concentration at the 30 min time point in the 22 PCI patients.
The effects of PZ-128 micelles were measured on activated clotting time (ACT) in human blood samples freshly obtained from adult patients undergoing PCI. At concentrations of PZ-128 up to 150 μM, there were no effects on ACT in the human PCI blood samples (FIG. 5).
Adult outpatients with angina referred for coronary angiography or PCI were enrolled in the Tufts Medical Center Adult Cardiac Catheterization Laboratory. Blood was collected prior to PCI or angiography and PZ-128 micelles were spiked into 1 ml samples of whole blood at a range of final concentrations (0-150 μmol/L). ACT was measured immediately in duplicate. […] Bivalirudin concentrations in plasma were measured by LC/MS/MS.

The subject of another data set is PAR1. The following applies: read-out: EC50, activation of guinea pig platelets; PRP from vehicle-treated guinea pigs.
In data set [1] the test system is human platelets (thrombin). The experiment in a line: Thrombin-induced aggregation of human platelets. The conditions noted are these: 3 μM compound. The class given is cell-based. On the procedure: A, Depiction of the mechanism of action of the cell-penetrating PZ-128 pepducin compound targeting the third intracellular loop (red) of PAR1. B, The NMR structure of PZ-128 was determined by simulated annealing methods using 210 distance restraints and included restraints to the proximal 3 hydrocarbons of the lipid. […] D, PZ-128 inhibits PAR1-dependent platelet aggregation. Gel filtered human platelets were treated with various concentrations of PZ-128 and then challenged with the PAR1 agonist SFLLRN (2.5 μM), 20 μM ADP, 200 μM AYPGKF or 1 mg/ml Ristocetin. E, Human platelets were treated with 3 μM PZ-128, 3 μM RWJ-56110, or 5% dextrose vehicle before the addition of various concentrations of thrombin (n=3-5).
PZ-128 also markedly right-shifted thrombin-induced aggregation by 5-fold. By comparison, the small molecule RWJ-56110 which antagonizes PAR1 at the extracellular ligand-binding site gave a 2-fold right shift in the thrombin activation curve of human platelets.
Whole blood from healthy donors was collected into a 30 ml syringe containing sodium citrate (0.4% vol/vol final). Platelets were isolated from platelet rich plasma (PRP) using Sepharose 2B columns in modified PIPES buffer.

For data set [2], the system named is guinea pig carotid artery thrombosis. Briefly: Guinea pig carotid artery FeCl3 injury arterial thrombosis model. The following applies: sub-therapeutic dose alone (PZ-128 0.05 mg/kg; clopidogrel 1 mg/kg PO). The class given is in vivo. On the procedure:
A carotid artery FeCl3 injury model was used in guinea pigs to assess the anti-thrombotic efficacy of PZ-128 micelles within 15 min of initiation of drug administration. FeCl3 denudes the artery and exposes type I collagen and other subendothelial matrix proteins to initiate platelet-dependent thrombosis. Guinea pigs received 10 min intravenous infusions of PZ-128 micelles, 5 min prior to carotid artery injury. […] Mean occlusion times increased by 4-fold to 40 min at doses above 0.05 mg/kg PZ-128.
Male Hartley guinea pigs (150˜220 g) were purchased from Charles River Laboratories. A 0.61 mm-diameter catheter was inserted into the left jugular vein of anesthetized animals for administration of infusions of 5% USP dextrose vehicle or PZ-128 micelles. A 0.5 V-Doppler probe (Transonic Systems, Ithaca, N.Y.) was placed around the right carotid artery to record blood flow. A range of doses of PZ-128 micelles from 0.05 to 1.6 mg/kg in 0.9 ml volumes were delivered at an injection rate of 0.09 ml/min by a Harvard syringe pump. Five minutes after the infusion ended, arterial thrombosis was induced by placing a 5×5 mm^2 piece of filter paper soaked in freshly made 20% FeCl3 solution on the right carotid artery 5 mm distal to the probe for 20 minutes. […] To examine possible synergistic effects of PZ-128 micelles and P2Y12-ADP receptor inhibition, 1 mg/kg clopidogrel was administered by oral gavage 4 hours prior to FeCl3 injury. In these synergy experiments, the maximum endpoint was set at 90 minutes for occlusion time.

The conditions of data set [3]: cited from earlier work.

pEC50: −log10 of the molar value.

Turning to `CC[C@H](C)[C@H](NC(=O)[C@H](CCC(=O)O)NC(=O)[C@H](CCC(=O)O)NC(=O)[C@H](Cc1ccccc1)NC(=O)[C@H](CC(=O)O)NC(=O)CNC(=O)[C@H](CC(N)=O)NC(=O)CNC(=O)CNC(=O)CNC(=O)CNC(=O)[C@@H]1CCCN1C(=O)[C@H](CCCNC(=N)N)NC(=O)[C@@H]1CCCN1C(=O)[C@H](N)Cc1ccccc1)C(=O)N1CCC[C@H]1C(=O)N[C@@H](CCC(=O)O)C(=O)N[C@@H](CCC(=O)O)C(=O)N[C@@H](Cc1ccc(O)cc1)C(=O)N[C@@H](CC(C)C)C(=O)O` [bivalirudin], the “Activated clotting time (ACT)” value in the data set with human whole blood is recorded as “highly elevated”.

For orientation: pEC50 means −log10 of the EC50, conventionally taken in molar units. In the case of SFLLRN, the pEC50 in the data set on PAR1 is 5.60. As to `NCC[C@H](NC(=O)[C@H](Cc1ccc(F)c(F)c1)NC(=O)Nc1ccc2c(CN3CCCC3)cn(Cc3c(Cl)cccc3Cl)c2c1)C(=O)NCc1ccccc1` [RWJ-56110, reference compound], the “Right shift of thrombin-induced aggregation curve” value in data set [1] is 2 fold. With `COC(=O)[C@H](c1ccccc1Cl)N1CCc2sccc2C1` [clopidogrel, reference compound], the “Protection against arterial occlusion when used alone” value in data set [2] is listed as “non-significant protection”.

With `CCOC(=O)N[C@@H]1CC[C@@H]2[C@@H](C1)C[C@H]1C(=O)O[C@H](C)[C@H]1[C@H]2/C=C/c1ccc(-c2cccc(F)c2)cn1` [vorapaxar], in data set [3] (oral administration), the “Pharmacodynamic (PD) half-life” value was “up to 3 weeks”. Moreover, in data set [3] (single loading dose), the Plasma half-life is 120 to 264 h.

These data come from patent publication US9878054B2, “Polypeptide and lipophilic moiety conjugate compositions, formulations, and uses related thereto” (Tufts Medical Center, Inc., priority 2012, dated 2018).
